Test results reported in PubChem BioAssay (NCI).
“And” between values parts separate entries of the source, which are not always exact repeats. Equal entries are not always repeated.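 Five compound concentrations were applied to cells in 96-well plates for 48 hours; endpoints were derived by simple linear interpolation of the resulting dose-response curve. GI50 = concentration required for 50% inhibition of growth. TGI marks complete inhibition of growth.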

Tests used:
Experiment in all cases: inhibition of tumour cell growth, NCI panel, 48 h
CCRF-CEM leukemia = tested on: CCRF-CEM leukemia
M14 melanoma = tested on: M14 melanoma
NCI-H226 lung = tested on: NCI-H226 lung
SN12C renal = tested on: SN12C renal
HS 578T breast = tested on: HS 578T breast
MALME-3M melanoma = tested on: MALME-3M melanoma
HCT-15 colon = tested on: HCT-15 colon
SNB-75 CNS = tested on: SNB-75 CNS
MDA-N = tested on: MDA-N
SK-MEL-2 melanoma = tested on: SK-MEL-2 melanoma
786-0 renal = tested on: 786-0 renal

SMILES	GI50 (CCRF-CEM leukemia)	TGI (CCRF-CEM leukemia)	GI50 (M14 melanoma)	TGI (M14 melanoma)	GI50 (NCI-H226 lung)	TGI (NCI-H226 lung)	GI50 (SN12C renal)	TGI (SN12C renal)	GI50 (HS 578T breast)	TGI (HS 578T breast)	TGI (MALME-3M melanoma)	GI50 (HCT-15 colon)	TGI (HCT-15 colon)	TGI (SNB-75 CNS)	TGI (MDA-N)	GI50 (SK-MEL-2 melanoma)	TGI (SK-MEL-2 melanoma)	TGI (786-0 renal)	GI50 (MALME-3M melanoma)	GI50 (SNB-75 CNS)
O=C(O)CCCc1ccccc1	> 1000 µM	350 µM and > 1000 µM	> 1000 µM	> 1000 µM	253 µM and > 1000 µM	917 µM and > 1000 µM	> 1000 µM	> 1000 µM	> 1000 µM	625 µM and > 1000 µM	121 µM and > 1000 µM	> 1000 µM	342 µM and > 1000 µM	327 µM and > 1000 µM	> 1000 µM	349 µM and > 1000 µM	932 µM and > 1000 µM			
O=C1CSC(c2ccccc2O)N1c1ccc(Oc2ccc(Cl)cc2)c(Cl)c1 (centres undefined)		65.1 µM		76.9 µM		> 100 µM		39.5 µM		38 µM	30.2 µM		46.9 µM	47.3 µM			65.7 µM	36.4 µM		
COc1ccc(C(=O)Oc2c(C#N)sc3c2c(=O)n(-c2ccccc2)c(=S)n3-c2ccccc2)cc1		74 µM		44.8 µM		57 µM		68.2 µM		69.6 µM			46.3 µM	> 100 µM				> 100 µM		
OC1COC(OCc2ccccc2)C(O)C1O (centres undefined)		> 100 µM		> 100 µM		> 100 µM		> 100 µM		> 100 µM	> 100 µM		> 100 µM		> 100 µM		> 100 µM	> 100 µM		
c1ccc(COC2C3COC(O3)C(OCc3ccccc3)C2OCc2ccccc2)cc1 (centres undefined)		40.6 µM		> 100 µM		> 100 µM		41.7 µM		> 100 µM			> 100 µM	> 100 µM	> 100 µM		> 100 µM	> 100 µM		
CSc1ccc2c(cc1=O)C(NC(=O)c1ccc(C#N)cc1)CCc1cc(O)c(O)c(O)c1-2 (centres undefined)		57.8 µM		89.6 µM		59.1 µM		40.3 µM			> 100 µM		36.6 µM	14.6 µM				> 100 µM		
CCCCCCCCCCCCC(O)C(=O)O (centres undefined)		> 100 µM		> 100 µM				> 100 µM		> 100 µM	> 100 µM		> 100 µM	> 100 µM	> 100 µM		> 100 µM	> 100 µM		
CCC(C)N1CN(c2ccccc2)C2(CCN(CCCSc3ccc(F)cc3)CC2)C1=O (centres undefined)		7.22 µM		7.08 µM		17 µM		> 100 µM			15.8 µM		4.2 µM	25 µM	10.7 µM			7.88 µM		
C/C(N)=N/OCc1nc(C)no1		> 100 µM		> 100 µM				> 100 µM		> 100 µM			> 100 µM	> 100 µM	> 100 µM			> 100 µM		
CC(C)CCC[C@@H](C)[C@H]1CC[C@H]2C3=C[C@H](OS(=O)(=O)O)[C@@]4(O)C[C@@H](O)CC[C@]4(C)[C@@]3(O)CC[C@]12C		> 100 µM		> 100 µM		> 100 µM		> 100 µM			> 100 µM		> 100 µM		> 100 µM		> 100 µM	> 100 µM		
CC(C)N(C(=O)C12C3C4C1C1C2C3C41C(=O)N(C(C)C)C(C)C)C(C)C (centres undefined)		> 50 µM		> 50 µM		> 50 µM		> 50 µM			> 50 µM		> 50 µM	> 50 µM			> 50 µM	> 50 µM		
O=C(Nc1ccc2[nH]c(C(=O)N3CC(CCl)c4ccc([N+](=O)[O-])cc43)cc2c1)c1cc2ccccc2o1 (centres undefined)		> 1100 µM		> 1100 µM		> 1100 µM		> 1100 µM		> 1100 µM	> 1100 µM		> 1100 µM		> 1100 µM		> 1100 µM	> 1100 µM		
COC(=O)c1ccc(C=C(C#N)C#N)cc1		51.9 µM		32.7 µM		80.4 µM		41.6 µM			39.6 µM		> 100 µM	82.5 µM			38.1 µM	33.4 µM		
Nc1nc2c(ncn2CCCC(c2ccccc2)P(=O)(O)O)c(=O)[nH]1 (centres undefined)		> 100 µM		> 100 µM				> 100 µM			> 100 µM		> 100 µM	> 100 µM			> 100 µM	> 100 µM		
CSC(=N)N1N=C2/C(=C/c3ccccc3)CCC[C@H]2[C@H]1c1ccccc1		8.2 µM		14.8 µM		11.2 µM		14.1 µM			3.94 µM		20.9 µM				15.4 µM	20.3 µM		
Cc1nnc(N/N=C(/C(=O)C(C#N)c2ccc(Cl)cc2)C(C#N)c2ccc(Cl)cc2)n1N (centres undefined)		> 100 µM		38.7 µM		33.5 µM		34.9 µM			33.6 µM		49.4 µM	30.1 µM			34.5 µM	31.5 µM		
Nc1[nH]c(=O)[nH]c(=O)c1Cc1cccc(Cl)c1				> 100 µM		> 100 µM		> 100 µM		> 100 µM	> 100 µM		> 100 µM	> 100 µM	> 100 µM		> 100 µM	> 100 µM		
CCOC(=O)/C=C/C1(CCOC(C)=O)CCCCC1		> 10 µM		> 10 µM		> 10 µM		> 10 µM		> 10 µM			> 10 µM	> 10 µM	> 10 µM		> 10 µM	> 10 µM		
CC1SC(c2ccc(Cl)cc2)N(CCc2cccs2)C1=O (centres undefined)	2.14 µM	11.3 µM			1.5 µM	3.26 µM	1.7 µM	3.15 µM	1.53 µM	4.1 µM	4.05 µM	1.56 µM	3.59 µM	5.99 µM		1.36 µM	2.72 µM		2.12 µM	2.05 µM
COC(=O)CCC(NC(=S)N/N=C(\C)c1cnccn1)C(=O)OC (centres undefined)		58.1 µM		> 100 µM		> 100 µM		> 100 µM			> 100 µM		> 100 µM	> 100 µM			> 100 µM	> 100 µM		
C=C(CCC=C(C)C)C1CC=C(C)CC1 (centres undefined)				> 100 µM		> 100 µM		41.3 µM		59 µM	> 100 µM		39.6 µM		37.9 µM		37.5 µM	35.7 µM		
Cc1ccc(/N=N/C(=NNC(=O)c2ccc(C)cc2)c2ccc(N(C)C)cc2)cc1				60.4 µM		68.4 µM		68.5 µM		> 100 µM			91.2 µM		46.1 µM		> 100 µM	> 100 µM		
